According to PubChem BioAssay AID330 (DTP/NCI, 2004):
Where “and” joins values, the source holds several entries; their conditions need not be identical. Identical values can stand only once. Toxic doses and inconclusive results are not listed. The calls were made as follows: active = survival T/C of 150% or more; inactive = T/C below 125% in these data.

Tested on: P388 leukemia ip, CD2F1 mice, survival T/C
Assay: NCI In Vivo Anticancer Drug Screen. Data for tumor model P388 Leukemia (intraperitoneal) in CD2F1 (CDF1) mice
Conditions: endpoint: median survival time, higher = longer survival
Summary of the method: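 Mice carrying the transplanted tumor received test compound or vehicle. Survival was recorded in each group, and the value is the treated-group measurement divided by that of the vehicle-treated control group.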

[1] = dose: 6.25 mg/kg/injection, schedule: Q01DX009 (ip), vehicle: saline with Tween-80
[2] = dose: 12.5 mg/kg/injection, schedule: Q01DX009 (ip), vehicle: saline with Tween-80
[3] = dose: 50.0 mg/kg/injection, schedule: Q01DX009 (ip), vehicle: Klucel (hydroxypropylcellulose) (HPC)
[4] = dose: 100.0 mg/kg/injection, schedule: Q01DX009 (ip), vehicle: Klucel (hydroxypropylcellulose) (HPC)
[5] = dose: 50.0 mg/kg/injection, schedule: Q01DX005 (ip), vehicle: saline with Tween-80
[6] = dose: 100.0 mg/kg/injection, schedule: Q01DX005 (ip), vehicle: saline with Tween-80
[7] = dose: 60.0 mg/kg/injection, schedule: Q01DX005 (ip), vehicle: saline with Tween-80
[8] = dose: 120.0 mg/kg/injection, schedule: Q01DX005 (ip), vehicle: saline with Tween-80
[9] = dose: 50.0 mg/kg/injection, schedule: Q01DX009 (ip), vehicle: saline
[10] = dose: 100.0 mg/kg/injection, schedule: Q01DX009 (ip), vehicle: saline
[11] = dose: 200.0 mg/kg/injection, schedule: Q01DX009 (ip), vehicle: saline
[12] = dose: 12.5 mg/kg/injection, schedule: Q01DX005 (ip), vehicle: Klucel (hydroxypropylcellulose) (HPC)
[13] = dose: 25.0 mg/kg/injection, schedule: Q01DX005 (ip), vehicle: Klucel (hydroxypropylcellulose) (HPC)
[14] = dose: 50.0 mg/kg/injection, schedule: Q01DX005 (ip), vehicle: Klucel (hydroxypropylcellulose) (HPC)
[15] = dose: 100.0 mg/kg/injection, schedule: Q01DX005 (ip), vehicle: Klucel (hydroxypropylcellulose) (HPC)
[16] = dose: 60.0 mg/kg/injection, schedule: Q01DX005 (ip), vehicle: Klucel (hydroxypropylcellulose) (HPC)
[17] = dose: 120.0 mg/kg/injection, schedule: Q01DX005 (ip), vehicle: Klucel (hydroxypropylcellulose) (HPC)
[18] = dose: 240.0 mg/kg/injection, schedule: Q01DX005 (ip), vehicle: Klucel (hydroxypropylcellulose) (HPC)
[19] = dose: 200.0 mg/kg/injection, schedule: Q01DX005 (ip), vehicle: Klucel (hydroxypropylcellulose) (HPC)
[20] = dose: 200.0 mg/kg/injection, schedule: Q01DX009 (ip), vehicle: Klucel (hydroxypropylcellulose) (HPC)
[21] = dose: 100.0 mg/kg/injection, schedule: Q04DX002 (ip), vehicle: saline
[22] = dose: 200.0 mg/kg/injection, schedule: Q04DX002 (ip), vehicle: saline
[23] = dose: 400.0 mg/kg/injection, schedule: Q04DX002 (ip), vehicle: saline

Measured: T/C

Cc1ccnc(N)c1N
inactive: dose: 3.13 mg/kg/injection, schedule: Q01DX009 (ip), vehicle: other 89 % of control | dose: 6.25 mg/kg/injection, schedule: Q01DX009 (ip), vehicle: other 96 % of control | dose: 12.5 mg/kg/injection, schedule: Q01DX009 (ip), vehicle: other 109 % of control

CCOC(=O)c1ccc(NC(CCC(C#N)(CCC(=NC(C)(C)C)Nc2ccc(C(=O)OCC)cc2)C(=O)OCC)=NC(C)(C)C)cc1 (stereo unspecified)
inactive: dose: 50.0 mg/kg/injection, schedule: Q01DX009 (ip), vehicle: saline with Tween-80 95 % of control | dose: 100.0 mg/kg/injection, schedule: Q01DX009 (ip), vehicle: saline with Tween-80 95 % of control | dose: 200.0 mg/kg/injection, schedule: Q01DX009 (ip), vehicle: saline with Tween-80 95 % of control

CCCCCCCCCCCCS(=O)(=O)O
inactive: dose: 3.12 mg/kg/injection, schedule: Q01DX009 (ip), vehicle: saline with Tween-80 119 % of control | [1] 111 % of control and 119 % of control | [2] 110 % of control and 112 % of control

CC(C)(C)c1cc(CO)c(Sc2c(CO)cc(C(C)(C)C)cc2CO)c(CO)c1
inactive: dose: 12.5 mg/kg/injection, schedule: Q01DX001 (ip), vehicle: saline with Tween-80 92 % of control | dose: 25.0 mg/kg/injection, schedule: Q01DX001 (ip), vehicle: saline with Tween-80 100 % of control | dose: 50.0 mg/kg/injection, schedule: Q01DX001 (ip), vehicle: saline with Tween-80 95 % of control

Oc1cccc(/C=N/N=C/c2cccc(O)c2O)c1O
inactive: [3] 96 % of control | [4] 93 % of control

CN(C)c1ccc2[nH]c3c(C(=O)O)cc(=O)c(=O)c=3oc2c1
inactive: [5] 108 % of control | [6] 100 % of control

CC(=O)[O][Hg][c]1s[c]([Hg][O]C(C)=O)[c]([Hg][O]C(C)=O)[c]1[Hg][O]C(C)=O
inactive: dose: 3.0 mg/kg/injection, schedule: Q01DX009 (ip), vehicle: saline with Tween-80 120 % of control | dose: 4.0 mg/kg/injection, schedule: Q01DX009 (ip), vehicle: saline with Tween-80 109 % of control | dose: 6.0 mg/kg/injection, schedule: Q01DX009 (ip), vehicle: saline with Tween-80 104 % of control | dose: 9.0 mg/kg/injection, schedule: Q01DX009 (ip), vehicle: saline with Tween-80 90 % of control

COc1ccc(C(C)(C)c2cc3c(cc2OC)OCO3)cc1
inactive: [7] 104 % of control | [8] 116 % of control

CN1CCC1=O
inactive: [9] 105 % of control | [10] 110 % of control | [11] 97 % of control

O=C(O)C1C(C(=O)O)C2C(=O)C=CC1N2Cc1ccccc1 (stereo unspecified)
inactive: [12] 105 % of control | [13] 99 % of control and 116 % of control | [14] 112 % of control and 114 % of control and 115 % of control | [15] 103 % of control and 118 % of control and 122 % of control

O=C(O)c1c[nH]c2cc(OCc3ccc(F)cc3)ccc2c1=O
inactive: dose: 100.0 mg/kg/injection, schedule: Q04DX003 (ip), vehicle: saline 88 % of control | dose: 200.0 mg/kg/injection, schedule: Q04DX003 (ip), vehicle: saline 93 % of control | dose: 400.0 mg/kg/injection, schedule: Q04DX003 (ip), vehicle: saline 90 % of control

CCCCNC=C1C(=O)Nc2ccccc2NC1=O
inactive: [16] 98 % of control | [17] 92 % of control | [18] 91 % of control

O=C1C=CCCCC1
inactive: dose: 12.5 mg/kg/injection, schedule: Q01DX009 (ip), vehicle: saline + Tween-80 + alcohol 102 % of control | dose: 25.0 mg/kg/injection, schedule: Q01DX009 (ip), vehicle: saline + Tween-80 + alcohol 98 % of control | dose: 44.0 mg/kg/injection, schedule: Q01DX009 (ip), vehicle: saline with Tween-80 109 % of control | dose: 50.0 mg/kg/injection, schedule: Q01DX009 (ip), vehicle: saline + Tween-80 + alcohol 100 % of control | dose: 66.0 mg/kg/injection, schedule: Q01DX009 (ip), vehicle: saline with Tween-80 109 % of control

COc1cc(C(=O)NNC(C)C)cc(OC)c1OC
inactive: [14] 104 % of control | [15] 100 % of control | [19] 107 % of control

O=S(=O)(c1ccc(F)cc1)C1C(c2ccccc2)=NNC1c1ccccc1Cl (stereo unspecified)
inactive: [5] 95 % of control | [6] 95 % of control | dose: 200.0 mg/kg/injection, schedule: Q01DX005 (ip), vehicle: saline with Tween-80 106 % of control

O=S(=O)(O)C1=CC(=N/Cl)/C=CC/1=N\Cl
inactive: dose: 50.0 mg/kg/injection, schedule: Q01DX005 (ip), vehicle: saline 114 % of control and 116 % of control and 119 % of control | dose: 100.0 mg/kg/injection, schedule: Q01DX005 (ip), vehicle: saline 104 % of control and 121 % of control and 124 % of control | dose: 200.0 mg/kg/injection, schedule: Q01DX005 (ip), vehicle: saline 107 % of control and 116 % of control and 121 % of control | dose: 400.0 mg/kg/injection, schedule: Q01DX005 (ip), vehicle: saline 106 % of control

CCOC(=O)CNC(=O)c1cc2c(cn1)[nH]c1ccccc12
inactive: [7] 93 % of control | [8] 86 % of control

c1ccc(-c2cn3ccccc3n2)cc1
inactive: [3] 98 % of control | [4] 108 % of control | [20] 117 % of control

COc1ccc(C2c3cc4c(cc3OC(C)(N3CCCC3)C2C)OCO4)c(OC)c1OC (stereo unspecified)
inactive: [7] 100 % of control | [8] 95 % of control | dose: 240.0 mg/kg/injection, schedule: Q01DX005 (ip), vehicle: saline with Tween-80 96 % of control

O=C(Nc1nc2ccccc2s1)Nc1ccc([N+](=O)[O-])cc1Cl
inactive: [14] 98 % of control | [15] 94 % of control | [19] 90 % of control

O=C1c2ccccc2CC1CS(=O)(=O)CC1Cc2ccccc2C1=O (stereo unspecified)
inactive: [21] 100 % of control | [22] 100 % of control | [23] 91 % of control and 96 % of control

O=C(CCl)n1ccc(=O)n(C(=O)CCl)c1=O
inactive: [21] 113 % of control | [22] 100 % of control | [23] 103 % of control

C1CCNCC1.COc1ccccc1C(=O)[CH-]C(=O)C(F)(F)F.COc1ccccc1C(=O)[CH-]C(=O)C(F)(F)F.COc1ccccc1C(=O)[CH-]C(=O)C(F)(F)F.COc1ccccc1C(=O)[CH-]C(=O)C(F)(F)F.[Eu+3]
inactive: [3] 94 % of control | [20] 91 % of control

O=C1/C(=C/c2ccccc2)CSC/C1=C\c1ccccc1
inactive: [14] 91 % of control | [15] 86 % of control

CCOC(=O)c1cc(=O)c2c(OC)ccc(Cl)c2[nH]1
inactive: [16] 100 % of control | [17] 99 % of control | [18] 96 % of control

N#CCc1ccc(Cl)c(Cl)c1
inactive: [1] 104 % of control | [2] 100 % of control | dose: 12.5 mg/kg/injection, schedule: Q04DX003 (ip), vehicle: saline with Tween-80 100 % of control | dose: 25.0 mg/kg/injection, schedule: Q01DX009 (ip), vehicle: saline with Tween-80 100 % of control | dose: 25.0 mg/kg/injection, schedule: Q04DX003 (ip), vehicle: saline with Tween-80 100 % of control

O=[N+]([O-])[O-].OCCNCCNCC[OH2+].OCCNCCNCC[OH2+].[Co+2]
inactive: [9] 95 % of control | [10] 104 % of control | [11] 103 % of control

[N-]=[N+]=Nc1ccc2nc(N)nc(N)c2c1
inactive: dose: 100.0 mg/kg/injection, schedule: Q01DX001 (ip), vehicle: Klucel (hydroxypropylcellulose) (HPC) 99 % of control | dose: 200.0 mg/kg/injection, schedule: Q01DX001 (ip), vehicle: Klucel (hydroxypropylcellulose) (HPC) 100 % of control

O=C(O)/C=C\C(=O)N[C@H]1CCSC1=O
inactive: [16] 94 % of control | [17] 94 % of control | [18] 90 % of control

CC(C)(C)c1cc(C2C(=O)c3ccccc3C2=O)cc(C(C)(C)C)c1O
inactive: [21] 110 % of control | [22] 107 % of control | [23] 107 % of control

O=C1NC(O)c2cc(Br)cc(Br)c2O1 (stereo unspecified)
inactive: [12] 100 % of control | [13] 101 % of control | [14] 103 % of control

CCN(CC)c1cc(C)c(Cc2c(OC)ccc3ccccc23)cc1C
inactive: [14] 92 % of control | [15] 92 % of control | [19] 99 % of control
